Experiment [1] concerns the target T1, Thyroid hormone receptor alpha (Homo sapiens, UniProt P10827).
T1 sequence (P10827 whole entry): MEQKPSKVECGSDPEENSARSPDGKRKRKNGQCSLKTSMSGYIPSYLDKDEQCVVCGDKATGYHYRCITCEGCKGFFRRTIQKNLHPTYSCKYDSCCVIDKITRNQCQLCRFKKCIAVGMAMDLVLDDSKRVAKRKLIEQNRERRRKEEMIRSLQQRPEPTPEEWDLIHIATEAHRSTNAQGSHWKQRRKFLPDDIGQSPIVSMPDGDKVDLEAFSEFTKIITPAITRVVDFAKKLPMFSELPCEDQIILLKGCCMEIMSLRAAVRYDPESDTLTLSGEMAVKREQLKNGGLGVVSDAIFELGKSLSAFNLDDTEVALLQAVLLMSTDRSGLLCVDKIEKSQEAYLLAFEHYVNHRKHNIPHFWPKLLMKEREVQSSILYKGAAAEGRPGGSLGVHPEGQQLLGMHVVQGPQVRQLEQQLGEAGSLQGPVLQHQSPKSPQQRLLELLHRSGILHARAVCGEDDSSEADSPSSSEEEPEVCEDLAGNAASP
As to the kind of experiment: Displacement of L-T3 from human TR-alpha-1 expressed in CHOK1 cells assessed as TRAF-alpha-1-driven gene transactivation by alkaline phosphatase reporter gene assay. In kind it is cell-based, CHO-K1. (In general: In a reporter assay the amount or activity of a reporter protein is the signal.)

A further experiment is filed under the species Homo sapiens. In words: Selectivity for human TR-alpha-1 to human TRbeta1.
Experiment [2] has as its target T1, Thyroid hormone receptor alpha. In words: Binding affinity at human TRalpha1.
A further experiment deals with T2, Estrogen receptor (Homo sapiens, UniProt P03372).
T2 sequence (P03372 whole entry): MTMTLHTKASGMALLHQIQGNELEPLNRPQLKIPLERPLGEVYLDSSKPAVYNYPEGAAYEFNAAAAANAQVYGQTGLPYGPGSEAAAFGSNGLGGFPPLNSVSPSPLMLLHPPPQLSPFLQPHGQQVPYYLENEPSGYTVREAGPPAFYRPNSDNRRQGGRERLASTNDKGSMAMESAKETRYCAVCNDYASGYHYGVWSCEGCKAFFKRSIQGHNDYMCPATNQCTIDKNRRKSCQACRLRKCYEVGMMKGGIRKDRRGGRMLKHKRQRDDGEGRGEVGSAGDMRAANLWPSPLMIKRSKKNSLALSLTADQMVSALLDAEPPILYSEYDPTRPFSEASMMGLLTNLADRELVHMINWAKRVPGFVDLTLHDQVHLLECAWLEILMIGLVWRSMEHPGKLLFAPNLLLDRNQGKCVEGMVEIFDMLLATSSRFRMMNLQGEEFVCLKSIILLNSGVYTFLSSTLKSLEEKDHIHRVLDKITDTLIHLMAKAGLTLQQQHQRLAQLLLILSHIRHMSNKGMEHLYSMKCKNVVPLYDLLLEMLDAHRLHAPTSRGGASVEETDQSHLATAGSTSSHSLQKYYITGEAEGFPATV
In words: Binding affinity at ERalpha.

The target of experiment [3] is T3, Mineralocorticoid receptor (Homo sapiens, UniProt P08235).
T3 sequence (P08235 whole entry): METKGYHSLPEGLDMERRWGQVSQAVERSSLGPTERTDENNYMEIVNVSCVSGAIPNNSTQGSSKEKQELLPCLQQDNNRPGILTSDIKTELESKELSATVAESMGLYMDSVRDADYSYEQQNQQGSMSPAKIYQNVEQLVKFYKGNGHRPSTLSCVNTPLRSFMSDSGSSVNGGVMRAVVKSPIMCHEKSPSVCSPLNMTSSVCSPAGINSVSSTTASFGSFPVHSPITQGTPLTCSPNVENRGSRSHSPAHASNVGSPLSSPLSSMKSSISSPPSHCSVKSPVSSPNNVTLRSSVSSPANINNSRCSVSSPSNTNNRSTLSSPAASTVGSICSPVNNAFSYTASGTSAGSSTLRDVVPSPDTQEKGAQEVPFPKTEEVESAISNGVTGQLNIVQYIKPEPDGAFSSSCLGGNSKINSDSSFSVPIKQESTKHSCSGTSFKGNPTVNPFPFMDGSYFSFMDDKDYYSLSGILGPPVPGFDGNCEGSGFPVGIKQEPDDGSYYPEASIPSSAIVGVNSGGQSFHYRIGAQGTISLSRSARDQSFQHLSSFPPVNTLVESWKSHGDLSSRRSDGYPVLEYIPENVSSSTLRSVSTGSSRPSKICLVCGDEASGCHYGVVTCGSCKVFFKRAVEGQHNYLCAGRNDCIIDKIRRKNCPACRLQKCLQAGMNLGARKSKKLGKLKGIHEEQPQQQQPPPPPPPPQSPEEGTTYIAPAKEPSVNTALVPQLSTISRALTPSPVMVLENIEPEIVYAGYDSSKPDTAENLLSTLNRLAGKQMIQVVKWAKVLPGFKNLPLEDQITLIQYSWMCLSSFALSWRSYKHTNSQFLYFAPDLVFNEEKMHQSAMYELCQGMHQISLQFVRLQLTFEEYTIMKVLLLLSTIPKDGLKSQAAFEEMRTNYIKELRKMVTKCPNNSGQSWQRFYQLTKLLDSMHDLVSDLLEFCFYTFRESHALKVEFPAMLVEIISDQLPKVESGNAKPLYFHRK
As to the kind of experiment: Binding affinity at MR.

Experiment [4] deals with T4, Thyroid hormone receptor beta (Homo sapiens, UniProt P10828).
T4 sequence (P10828 whole entry): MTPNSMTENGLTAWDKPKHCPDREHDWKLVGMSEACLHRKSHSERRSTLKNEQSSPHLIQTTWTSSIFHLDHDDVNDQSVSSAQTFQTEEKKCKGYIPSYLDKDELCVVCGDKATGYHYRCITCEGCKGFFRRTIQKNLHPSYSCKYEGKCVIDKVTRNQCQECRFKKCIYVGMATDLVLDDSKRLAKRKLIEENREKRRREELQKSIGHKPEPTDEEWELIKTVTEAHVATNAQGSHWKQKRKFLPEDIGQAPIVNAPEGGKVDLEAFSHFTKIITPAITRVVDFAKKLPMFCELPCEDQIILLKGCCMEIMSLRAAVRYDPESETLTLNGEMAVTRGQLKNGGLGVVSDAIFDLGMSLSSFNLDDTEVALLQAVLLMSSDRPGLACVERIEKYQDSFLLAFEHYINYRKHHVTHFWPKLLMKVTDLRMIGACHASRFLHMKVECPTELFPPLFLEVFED
Description: Antagonist activity at human TR-beta-1 expressed in CHO cells assessed as TRAF-beta-1-driven gene transactivation by alkaline phosphatase reporter gene assay

The IC50 is the concentration at which inhibition is half-maximal. With `O=C(O)CCc1cc(Br)c(OCc2cccc(Br)c2)c(Br)c1`, the IC50 in experiment [1] amounted to 0.09 µM; in experiment [2] it was 0.099 µM; at Estrogen receptor, 29 µM; in experiment [3], 8.7 µM; in experiment [4] it was 0.23 µM. The Ratio IC50 in the experiment filed under Homo sapiens came out at 0.97.

Values taken from ChEMBL document CHEMBL1139115, “Thyroid receptor ligands. Part 7: Indirect antagonists of the thyroid hormone receptor with improved affinity” (Bioorg Med Chem Lett, 2007).
